Measurements reported in patent US20010029261A1, “Small molecule sulfonamide hair growth compositions and uses” (GUILFORD PHARMACEUTICALS INC., priority 1997, published 2001).

Tests used:
FKBP12 = FKBP12 (Homo sapiens, UniProt P62942); test: Ki test procedure: inhibition of peptidyl-prolyl isomerase (rotamase) activity, chymotrypsin-coupled assay; type: biochemical; conditions: apparent Ki
Source text: The inhibition of the prolyl peptidyl cis-trans isomerase activity of FKBP may be measured as an indicator of this affinity.
Inhibition of the peptidyl-prolyl isomerase (rotamase) activity of the compounds used in the inventive methods and pharmaceutical compositions can be evaluated by known methods described in the literature (Harding et al., Nature, 1989, 341:758-760; Holt et al. J. Am. Chem. Soc., 115:9923-9938). These values are obtained as apparent Ki's and are presented for representative compounds in TABLE II.
The cis-trans isomerization of an alanine-proline bond in a model substrate, N-succinyl-Ala-Ala-Pro-Phe-p-nitroanilide, is monitored spectrophotometrically in a chymotrypsin-coupled assay, which releases para-nitroanilide from the trans form of the substrate. The inhibition of this reaction caused by the addition of different concentrations of inhibitor is determnined, and the data is analyzed as a change in first-order rate constant as a function of inhibitor concentration to yield the apparent Ki values.
In a plastic cuvette are added […] of ice cold assay buffer (25 mM HEPES, pH 7.8, 100 mM NaCl), 10 mL of FKBP (2.5 mM in 10 mM Tris-Cl pH 7.5, 100 mM NaCl, 1 mM dithiothreitol), […] of chymotrypsin (50 mg/ml in 1 mM HCl) and […] of test compound at various concentrations in dimethyl sulfoxide. The reaction is initiated by the addition of 5 mL of substrate (succinyl-Ala-Phe-Pro-Phe-para-nitroanilide, 5 mg/mL in 2.35 mM LiCl in trifluoroethanol).
The absorbance at 390 nm versus time is monitored for 90 seconds using a spectrophotometer and the rate constants are determined from the absorbance versus time data files.

hair growth = conditions: topical, but not oral, application; cited from earlier work

FKBP12, sequence (P62942 whole entry, species assumed): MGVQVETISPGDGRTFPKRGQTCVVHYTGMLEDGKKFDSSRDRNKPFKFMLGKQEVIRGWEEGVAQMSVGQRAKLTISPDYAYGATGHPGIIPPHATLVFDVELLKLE

O=C(OCCCCc1ccccc1)C1CCCCN1S(=O)(=O)Cc1ccccc1 (racemic) [Compound 1, 4-phenyl-1-butyl-1-(benzylsulfonyl)-(2R,S)-2-pipecolinate]
Ki (FKBP12): 72 nM

O=C(OC(CCc1ccccc1)CCc1ccccc1)C1CCCCN1S(=O)(=O)Cc1ccccc1 (stereo not drawn) [Compound 2, 1,5-diphenyl-3-pentyl-N-(α-toluene-sulfonyl)pipecolate]
Ki (FKBP12): 34 nM

O=C(OCCCc1cccnc1)[C@@H]1CCCN1S(=O)(=O)Cc1ccccc1 [Compound 4, 3-(3-pyridyl)-1-propyl-(2S)-N-(α-toluenesulfonyl)pyrrolidine-2-carboxylate]
Ki (FKBP12): 332 nM

O=C(OCCCCc1ccccc1)C1CCCCN1S(=O)(=O)Cc1ccccc1 (stereo not drawn) [Compound 7, 4-phenyl-1-butyl-N-(α-toluene-sulfonyl)pipecolate]
Ki (FKBP12): 127 nM

C=CC[C@@H]1/C=C(\C)C[C@H](C)C[C@H](OC)[C@H]2O[C@@](O)(C(=O)C(=O)N3CCCC[C@H]3C(=O)O[C@H](/C(C)=C/[C@@H]3CC[C@@H](O)[C@H](OC)C3)[C@H](C)[C@@H](O)CC1=O)[C@H](C)C[C@@H]2OC [FK506]
hair growth stimulation (hair growth): stimulates hair growth in a dose-dependent manner
